# Experimental data: US20210087525A1, “COST EFFECTIVE CULTURE MEDIA AND PROTOCOL FOR HUMAN INDUCED PLURIPOTENT STEM CELLS” (NORTHWESTERN UNIVERSITY, priority 2019, published 2021)
# Assays:
# [1] = tested on: hiPSC line 19-3; assay: short-term 6-day hiPSC growth assay (media variable optimization); type: cell-based, human; details: for necessity of component for hiPSC growth: short-term assay, FIG. 2; for concentrations showing a similar effect on growth rate: FGF2-G3 compared with FGF2-K128N; for optimal / sufficient concentration for growth: one passage growth assay, FIG. 2E-F
# From the text: FIG. 2A-F. Optimization of Basic Human Pluripotent Stem Cell Medium Constituents with a Short-Term Growth Assay. Results are normalized to initial medium component concentrations shown with a dark gray bar, optimizations were completed using short-term 6-day growth assay. […] (A) Comparison of the effect of recombinant human IGF1 LR3 (n=3) and recombinant human insulin (n=18-22) concentrations on relative growth. (B) L-ascorbic acid 2-phosphate (n=19-27). (C) Transferrin (n=2-20). (D) Sodium selenite (n=3-20). (E) FGF2-K128N (n=3-12). (F) TGFb1 (n=20-25). n=full experimental replicates, unpaired Student's T-test, *P≤0.05, **P≤0.01, ***P≤0.005, ****P≤0.0001, n.s.=not significant.
# FIG. 3A-H. Optimization of Additional Human Pluripotent Stem Cell Medium Constituents in a Short-Term Assay. E8 medium component concentrations are shown with a dark gray bar, optimizations were completed using a simple 6-day growth assay. […] (A) Comparison of the suitability of recombinant transferrin (10 μg ml−1) to support clonal growth with and without ROCK1/2 inhibition using Y27632 (10 μM) during the first 24 h after passage (n=3). (B) Comparison of two common ROCK1/2 inhibitors only during first 24 h after passage on relative growth (n>5). (C) Comparison of the effect of the addition of non-essential amino acids (NEAA) and chemically defined lipids (n=5) on relative growth. (D) Fatty acid-free albumin (n=4). (E) Sodium bicarbonate (n=5). (F) pH (n=9). (G) Osmolarity (n=8). (H) FGF2-G3 (n=3). n=full experimental replicates, unpaired Student's T-test, *P≤0.05, **P≤0.01, ***P≤0.005, ****P≤0.0001, n.s.=not significant.
# The hiPSC line 19-3 was dissociated with TrypLE (Gibco™, 12604-013) for 3 min at 37° C. and cells were resuspended in DMEM/F12, transferred to a 15 ml conical tube (Falcon) and centrifuged at 200×g for 3 min (Sorvall ST40). The pellet was resuspended in DMEM/F12, diluted to 1×10^5 cells per ml and 10,000 cells were plated per well in Matrigel® (1:800)-coated 12-well plates (Greiner) in the medium to be tested along with 2 μM thiazovivin for the first 24 h. Media were changed daily and cells were grown for 6 days. This lower than normal seeding density was used to allow the discovery of factors only detectable under more extreme conditions and therefore provide data on the robustness to the formulation.
# [2] = tested on: hiPSC; assay: long-term 5-passage, 4-day hiPSC growth assay; type: cell-based, human; details: for confirmed concentration in long-term assay: FIG. 5A-C; for necessity of component for hiPSC culture: long-term assay, removal of dispensable components reduces growth rate; for concentration confirmed / usable / required in long-term assay: FIG. 5D-L
# From the text: FIG. 5A-P. Optimization of B8 Medium Constituents with a Long-Term Growth Assay. Results are normalized to initial medium component concentrations shown with a dark gray bar, optimizations were completed using long-term 5-passage, 4-day growth assay. Comparison of the effect of (A) recombinant human insulin concentration on relative growth (n=10). (B) L-ascorbic acid 2-phosphate (n=10). (C) Recombinant transferrin (n=10). (D) Sodium selenite (n=5). (E) In-house made FGF2-G3 (n=6). (G) NODAL (n=5). (H) Activin A (n=5). (I) In-house made TGFb3 after 9 passages compared to commercial TGFb1 (n=9). (J) Addition of NRG1 to 40 ng ml−1 FGF2-G3 (n>5). (K) Final B8 formula. n=full experimental replicates, unpaired Student's T-test, *P≤0.05, **P≤0.01, ***P≤0.005, ****P≤0.0001, n.s.=not significant.
# Our initial short-term experiments provided preliminary optimizations, yet we were aware from previous experiments that some variables, such as the elimination of TGFβ1, had minimal effects short-term and would only have detectable negative effects in long-term experiments. Thus the effectiveness of a long-term assay was evaluated with the following assay protocol: […]
# [3] = cited from earlier work
# [4] = tested on: phospho-ERK; assay: stimulation of phospho-ERK in FGF2-starved hiPSC by media stored at 37° C. (Western blot); type: cell-based, human
# Protocol: FIG. 7A-E. Qualification of B8 as Suitable for hiPSC Generation and Culture. […] (B) Expression of pluripotent markers in a variety of B8-derived hiPSC lines. (C) Example G-banding karyotype analysis of four hiPSC lines derived in B8 from blood. (D) hiPSC growth at low seeding densities in B8 compared to E8 (n=8). (E) Assessment of stimulation of phospho-ERK after media had been stored at 37° C. for 2 or 7 days, comparing in-house generated FGF2-G3 to a commercial FGF2 (Peprotech). hiPSC were starved of FGF2 for 24 h then treated with the indicated media for 1 h before collection for Western blot. Total ERK was used as a loading control.
# Stock lysis buffer was prepared as 150 mM NaCl, 20 mM Tris pH 7.5, 1 mM EDTA, 1 mM EGTA, and 1% Triton X-100 and stored at 4° C. Fresh complete lysis buffer was prepared with final concentration of 1× Protease Inhibitor (Roche, 5892791001), 1× Phosphatase Inhibitor Cocktail 2 (P5726, Sigma), 1× Phosphatase Inhibitor Cocktail 3 (Sigma, P0044), 2 mM PMSF (Sigma, P7626), and 1% SDS Solution (Fisher Scientific, BP2436200). hiPSC were starved using B8 without FGF2 for 24 hours, then treated with media containing the corresponding FGF2 for 1 h. Media was then removed, and cells were washed once with DPBS, harvested with 0.5 mM EDTA in DPBS, and transferred into tubes. Samples were pelleted by centrifugation at 500×g for 3 minutes and the supernatant was discarded. The pellet was resuspend in 150 μl complete lysis buffer and incubated on ice for 30 min. Clear lysates were collected by centrifugation at 10,000×g for 10 min at 4° C. The protein concentration was measured with Qubit Protein Assay Kit (Invitrogen, Q33211) and Qubit 4 fluorometer. Lysates was stored in −80° C. before use. 10 μg of sample was prepared with NuPAGE™ LDS Sample Buffer (Invitrogen, B0007) and NuPAGE™ Reducing Agent (Invitrogen, B0009) according to the manufacturer's instructions and run on NuPAGE™ 10% Bis-Tris Gel (Invitrogen, NP0302BOX) and Mini Gel Tank system (Invitrogen, A25977) with Bolt MES SDS Running Buffer (Invitrogen, B000202) at 100 V for 1 h. […]
molecule,measurement,setting,value
"O=C1O[C@H]([C@@H](O)CO)C(O)=C1OP(=O)(O)O.[Na+].[Na+].[Na+] [Ascorbic acid 2-phosphate, L-ascorbic acid 2-phosphate trisodium salt]",necessity of component for hiPSC growth,[1],not essential
same,confirmed concentration in long-term assay,[2],200 µg/mL
same,necessity of component for hiPSC culture,[2],dispensable
O=C([O-])O.[Na+] [sodium bicarbonate],optimal concentration for growth,[1]; FIG. 3E,29 mM
O=[Se](O)O [sodium selenite],concentrations that did not significantly affect growth,[1]; FIG. 2D,2 to 200 ng/mL
same,concentration confirmed / usable / required in long-term assay,[2],20 ng/mL
"O=C(NCc1ccccc1)c1csc(Nc2ccncn2)n1 [thiazovivin, reference compound]",effect on growth vs 10 μM Y27632,"[1]; 2 μM for the first 24 h after passage, FIG. 3B","marginally, though not significantly, improved growth"
"FGF2-K128N: recombinant human FGF2 with K128N substitution, made in-house in E. coli (SEQ ID NO: 4/14)",concentrations showing a similar effect on growth rate,[1]; FIG. 3H,100 ng/mL
same,optimal / sufficient concentration for growth,[1],≥ 40 ng/mL
"FGF2: fibroblast growth factor 2, human FGF2 (SEQ ID NO: 3)",necessity of component for hiPSC growth,[1],essential
"IGF1 LR3: recombinant human IGF1 LR3 (Sigma, 91590C)",level of IGF1 LR3 able to replace insulin,"[1]; FIG. 2A, not cost-effective",≥ 1 µg/mL
"TGFβ1: recombinant human TGFβ1 (112 amino acid, HEK293-derived, Peprotech)",optimal / sufficient concentration for growth,[1],≥ 0.5 ng/mL
same,concentration confirmed / usable / required in long-term assay,[2],0.1 ng/mL
same,necessity of component for hiPSC culture,[2],essential
"TGFβ1m: TGFβ1 with C77S point mutation, unable to form dimers, produced in E. coli",potency relative to TGFβ1 (fold less potent),"[3]; monomeric C77S protein, predicted (Kim et al., 2015)",~20 fold
TGFβ3: 112 amino acid TGFβ3 (SEQ ID NO: 16) made in E. coli as thioredoxin fusion protein,concentration confirmed / usable / required in long-term assay,[2],0.1 ng/mL
same,potency relative to TGFβ1,"[3]; Huang et al., 2014",more potent than TGFβ1
"Transferrin: Oryza sativa-derived recombinant human transferrin (Optiferrin, InVitria)",concentration enhancing growth / giving optimal growth,[1]; FIG. 2B-C,20 µg/mL
same,necessity of component for hiPSC growth,[1],not essential
same,confirmed concentration in long-term assay,[2],20 µg/mL
same,necessity of component for hiPSC culture,[2],dispensable
commercial FGF2: a commercial FGF2 (Peprotech) [reference compound],pERK stimulation after storage of media at 37° C.,[4]; 2 days at 37° C.,not capable of stimulating pERK
insulin: E. coli-derived recombinant human insulin (Gibco),concentration up to which effect on growth was dose-dependent,[1]; FIG. 2A,up to 20 μg ml^−1
same,necessity of component for hiPSC growth,[1],essential
same,confirmed concentration in long-term assay,[2],20 µg/mL
NRG1: 65 amino acid truncated neuregulin 1 containing just the EGF domain (SEQ ID NO: 17) (protein) SHLVKCAEKEKTFCVNGGECFMVKDLSNPSRYLCKCPNEFTGDRCQNYVMASFYKHLGIEFMEAE,enhancement of growth over FGF2-G3 alone,[2]; all tested levels of NRG1 added to 40 ng ml−1 FGF2-G3,> 15%
same,necessity of component for hiPSC culture,[2],dispensable
same,support of growth in the absence of FGF2,[2]; no FGF2,not able to support growth
"NODAL: Activin/NODAL/TGFβ1 signaling source (protein, UniProt Q96S42 238-347, looked up) Nodal homolog: HHLPDRSQLCRKVKFQVDFNLIGWGSWIIYPKQYNAYRCEGECPNPVGEEFHPTNHAYIQSLLKRYQPHRVPSTCCAPVKTKPLSMLYVDNGRVLLDHHKDMIVEECGCL",concentration confirmed / usable / required in long-term assay,[2],100 ng/mL
"FGF2-G3: thermostable FGF2 with nine point mutations, made in-house in E. coli (SEQ ID NO: 15) (protein) AAGSITTLPALPEDGGSGAFPPGHFKDPKLLYCKNGGFFLRIHPDGRVDGTRDKSDPFIKLQLQAEERGVVSIKGVCANRYLAMKEDGRLYAIKNVTDECFFFERLEENNYNTYRSRKYPSWYVALKRTGQYKLGSKTGPGQKAILFLPMSAKS",concentrations showing a similar effect on growth rate,[1]; FIG. 3H,5 ng/mL
same,relative potency on growth rate,[1]; FIG. 3H,more potent than FGF2-K128N
same,concentration confirmed / usable / required in long-term assay,[2],40 ng/mL
same,stability (pERK stimulation) after storage of media at 37° C.,[4]; 7 days at 37° C.,stable
"Activin A: Activin/NODAL/TGFβ1 signaling source (protein, UniProt P08476 311-426, looked up, Inhibin beta A chain) Inhibin beta A chain: GLECDGKVNICCKKQFFVSFKDIGWNDWIIAPSGYHANYCEGECPSHIAGTSGSSLSFHSTVINHYRMRGHSPFANLKSCCVPTKLRPMSMLYYDDGQNIIKKDIQNMIVEECGCS",effect on growth in combination with TGFβ1,[2]; FIG. 5I,negative effect on growth
same,suitability to maintain growth,"[2]; alone, FIG. 5H",not suitable to maintain growth to the same level as TGFβ1
same,support of growth at very low doses,[2]; very low doses,"could support growth, albeit to a lesser extent than TGFβ1"
